Source: PubChem BioAssay (NCI)
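1) Cells in 96-well plates. 2) Compound, 48 h, 5 concentrations. 3) Linear interpolation between surrounding doses. 4) Unreached endpoint = highest concentration. GI50: concentration for 50% inhibition of growth. TGI: total growth inhibition.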

Assays:
Experiment in all cases: growth of human tumour cells (NCI), 48 h
IGROV1 ovarian = tested on: IGROV1 ovarian
UACC-62 melanoma = tested on: UACC-62 melanoma
SNB-19 CNS = tested on: SNB-19 CNS
NCI-H226 lung = tested on: NCI-H226 lung
SNB-75 CNS = tested on: SNB-75 CNS
NCI-H460 lung = tested on: NCI-H460 lung
UO-31 renal = tested on: UO-31 renal
LOX IMVI melanoma = tested on: LOX IMVI melanoma
T-47D breast = tested on: T-47D breast
NCI/ADR-RES ovarian = tested on: NCI/ADR-RES ovarian

Structure (SMILES) | TGI (IGROV1 ovarian) [µM] | TGI (UACC-62 melanoma) [µM] | TGI (SNB-19 CNS) [µM] | TGI (NCI-H226 lung) [µM] | TGI (SNB-75 CNS) [µM] | TGI (NCI-H460 lung) [µM] | TGI (UO-31 renal) [µM] | TGI (LOX IMVI melanoma) [µM] | TGI (T-47D breast) [µM] | TGI (NCI/ADR-RES ovarian) [µM] | GI50 (UACC-62 melanoma) [µM] | GI50 (SNB-19 CNS) [µM] | GI50 (NCI-H226 lung) [µM] | GI50 (SNB-75 CNS) [µM] | GI50 (NCI/ADR-RES ovarian) [µM]
CN=C(/N=c1\ssc(=NC)n1C)N(C)C | > 100 | > 100 | > 100 | > 100 | > 100 | > 100 | > 100 | > 100 |  |  |  |  |  |  | 
CN(C)Cc1cc(C(=O)/C=C/c2ccccc2)cc(CN(C)C)c1O | > 100 |  | > 100 | 78.5 | > 100 | 44.8 | 40.7 | 17.7 | > 100 | > 100 |  |  |  |  | 
CN1C(=O)C(O)C[C@@H]1c1ccccc1 (some centres not stated) | > 100 | > 100 | > 100 | > 100 | > 100 |  | > 100 | > 100 | > 100 | > 100 |  |  |  |  | 
COc1cc(C2C(Cl)C(=O)N2c2c(C)n(C)n(-c3ccccc3)c2=O)ccc1O (configuration not stated) | 29.1 | 29.7 |  | 53.8 |  | 59.7 | 32.9 | 32.2 | > 100 | 75.8 |  |  |  |  | 
COC[C@@H](N=Cc1ccc([N+](=O)[O-])cc1)C(C)C | > 100 | > 100 | > 100 |  | > 100 | > 100 | > 100 | > 100 |  | > 100 |  |  |  |  | 
O=C(Nc1ccccc1C(=O)NCc1ccccc1)/C(=C/c1ccccc1)NC(=O)c1ccccc1 | > 100 | > 100 | > 100 | > 100 | > 100 |  | > 100 | > 100 | > 100 | > 100 |  |  |  |  | 
Cn1c(=O)oc2nc(-c3ccccc3)cc(C(F)(F)F)c21 | > 100 | > 100 | > 100 | > 100 | > 100 | > 100 | > 100 |  | > 100 | > 100 |  |  |  |  | 
COc1ccc(C(=O)CC(c2ccccc2)[C@H]2C(c3ccc(OC)cc3)=Nc3c(nc(SC)n(C)c3=O)NC2c2ccccc2)cc1 (some centres not stated) | > 100 | > 100 | > 100 | > 100 |  | > 100 |  | > 100 | > 100 | > 100 |  |  |  |  | 
COc1cccc(N=N/C(=N\NC(=O)c2ccc(C)cc2)c2ccc(N(CCC#N)CCC#N)cc2C)c1 | > 100 |  | > 100 | > 100 | > 100 | > 100 | > 100 | > 100 | > 100 | > 100 |  |  |  |  | 
CCN(CC)C(=S)SS(=O)(=O)c1cccc(N)c1 |  | > 100 | > 100 | > 100 |  | > 100 | > 100 | > 100 | > 100 | > 100 |  |  |  |  | 
COc1ccc(-c2oc3cc(O)cc(O)c3c(=O)c2OC)cc1 | > 100 | > 100 | > 100 |  |  | 65.6 | 56.6 | > 100 | > 100 | > 100 |  |  |  |  | 
CCN=C1C=CC(=C(c2ccc(N(CC)CC)cc2)c2ccc(N(CC)CC)cc2)c2ccccc21 |  | 1.11 | 1.47 | 1.61 | 0.879 |  |  |  |  | 2.11 | 0.0983 | 0.0504 | 0.064 | 0.0304 | 0.35
CC(C)(C)OC(=O)NCC(CNC(=O)OC(C)(C)C)c1nc(C(N)=O)cs1 | > 100 | > 100 | > 100 | > 100 | > 100 | > 100 | > 100 | > 100 |  | > 100 |  |  |  |  | 
CCOC(=O)Nn1c(CC#N)nnc1Cc1ccccc1 | > 100 | > 100 | > 100 | > 100 | > 100 | > 100 | > 100 |  | > 100 | > 100 |  |  |  |  | 
COc1cccc(C=O)c1[O-].[O]=[U](=[O])([OH2+])[OH2+] | > 100 | 57.6 | 45.5 | > 100 | 81.3 | 58.4 | > 100 | > 100 |  |  |  |  |  |  | 
Cc1c(C(=O)OCc2ccccc2)[n+](=O)c2cc(Cl)c(Cl)cc2n1[O-] | 19 | 31 | 68.1 | 20.1 |  | 30.7 | 32 | 35.7 | 23.6 | 48.4 |  |  |  |  | 
NN=C(CC(O)(C(F)(F)Cl)C(F)(F)Cl)CC(O)(C(F)(F)Cl)C(F)(F)Cl | > 10 | > 10 | > 10 | > 10 | > 10 | > 10 |  | > 10 | > 10 | > 10 |  |  |  |  | 
CCOC(=O)c1cc(C)nc2c1c(=O)n(-c1ccccc1)c(=O)n2CCCCN1CCN(c2ccccc2)CC1 | > 100 | > 100 |  | > 100 | > 100 |  | 65.2 | > 100 | > 100 | > 100 |  |  |  |  | 
COc1cc(C2C3=C(COC3=O)Oc3cc4c(cc32)OCO4)cc(OC)c1O (configuration not stated) | 21.9 | 2.69 | 27.6 | 0.215 |  | 4.05 | 49.6 | 19 | 60.3 |  |  |  |  |  | 
COc1ccc(OC)c(SC(CC(=O)c2ccccc2)c2ccccc2)c1 (configuration not stated) | 23.1 | 30.7 | 27.8 | 31.9 | 33.6 | > 100 | 24.7 |  | 35.8 | 32.4 |  |  |  |  | 
Cc1ccc(S(=O)(=O)Nn2c(O)c(C#N)c(-c3ccc(Cl)cc3)c(C#N)c2=O)cc1 | > 100 | > 100 | > 100 | > 100 | > 100 | > 100 |  | > 100 |  | > 100 |  |  |  |  | 
O=c1[nH]n(Cc2ccccc2)c2ccc([N+](=O)[O-])cc12 | > 100 | > 100 | > 100 | > 100 |  | > 100 | > 100 | > 100 |  | > 100 |  |  |  |  | 
CC(C)/C(Cl)=N\OC(NC(=O)P(=O)(c1ccccc1)c1ccccc1)(C(F)(F)F)C(F)(F)F | 28.4 | 49 | 35.3 | 38.4 |  | 53.7 | 21 | 29.6 | > 100 | 42.2 |  |  |  |  | 
